The source of these data is patent publication US7803940B2, “Heteromonocyclic compound or a salt thereof having strong antihypertensive action, insulin sensitizing activity and the like production thereof and use thereof for prophylaxis or treatment of cardiovascular diseases, metabolic diseases and/or central nervous system diseases” (Takeda Pharmaceutical Company Limited, priority 2006, dated 2010).

Counter-ions that a name gives are not always drawn. Like-named read-outs stand apart in the source and are kept apart here.

The IC50 is the concentration at which inhibition is half-maximal.

One assay deals with T1, PPARγ (Homo sapiens, UniProt P37231).
T1 construct: expressed in transfected cells; host or cells: CHO-K1
T1 sequence (P37231 1-477 isoform P37231-2): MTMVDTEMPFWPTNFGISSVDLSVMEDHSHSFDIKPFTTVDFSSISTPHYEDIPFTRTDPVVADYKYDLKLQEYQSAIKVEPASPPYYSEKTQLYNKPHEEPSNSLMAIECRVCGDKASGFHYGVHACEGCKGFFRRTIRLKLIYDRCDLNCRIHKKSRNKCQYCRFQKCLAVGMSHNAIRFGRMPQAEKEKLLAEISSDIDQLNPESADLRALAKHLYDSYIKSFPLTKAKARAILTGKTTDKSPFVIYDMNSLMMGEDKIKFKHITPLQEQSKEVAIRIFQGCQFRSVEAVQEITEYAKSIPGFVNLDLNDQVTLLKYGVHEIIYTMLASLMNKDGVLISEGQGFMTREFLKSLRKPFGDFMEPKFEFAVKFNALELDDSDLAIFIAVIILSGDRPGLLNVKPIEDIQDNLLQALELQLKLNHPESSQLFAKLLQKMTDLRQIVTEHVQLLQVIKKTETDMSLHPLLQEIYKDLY
T1 sequence (P19793 1-462 partner): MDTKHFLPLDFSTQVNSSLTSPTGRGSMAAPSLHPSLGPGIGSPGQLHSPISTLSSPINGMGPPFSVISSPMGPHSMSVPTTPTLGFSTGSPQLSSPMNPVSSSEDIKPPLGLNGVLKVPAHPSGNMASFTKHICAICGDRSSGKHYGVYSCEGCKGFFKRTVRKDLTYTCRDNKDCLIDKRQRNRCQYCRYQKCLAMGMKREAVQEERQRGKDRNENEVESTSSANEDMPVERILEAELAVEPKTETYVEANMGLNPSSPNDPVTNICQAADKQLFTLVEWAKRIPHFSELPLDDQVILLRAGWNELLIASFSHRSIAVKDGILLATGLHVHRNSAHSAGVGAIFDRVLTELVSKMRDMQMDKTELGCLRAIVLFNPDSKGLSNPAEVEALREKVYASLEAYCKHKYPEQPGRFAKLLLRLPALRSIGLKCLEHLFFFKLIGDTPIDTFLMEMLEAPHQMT
Briefly: Evaluation of PPARγ activating action (luciferase reporter, PPARγ:RXRα:4ERPP/CHO-K1 cells). Format: cell-based. Particulars: for activation at 1 µM: CHO-K1, 24 h, read-out: PPARγ activating action (activation % (10^−6 M)). The procedure:
PPARγ:RXRα:4ERPP/CHO-K1 cells obtained in the following Reference Example 5 were cultured in F12 medium [manufactured by INVITROGEN, USA] containing 10% fetal bovine serum [manufactured by MOREGATE, Australia], seeded in a 96-well half area white plate [manufactured by Corning Coster Corporation, USA] at the density of 5×10^3 cells/well and cultured in a CO2 gas incubator at 37° C. overnight.
Then the medium was removed from the 96-well half area white plate, 45 μl of Ham's F12 medium containing 0.1% fatty acid-free bovine serum albumin (BSA) and 5 μl of test compound were added, and the cells were cultured in a CO2 gas incubator at 37° C. for 1 day. The medium was removed and 20 μl of PicaGene 7.5 [manufactured by TOYO INK MFG. CO., LTD., Japan] diluted 2-fold with HBSS (HANKS' BALANCED SALT SOLUTION) [manufactured by BIO WHITTAKER, USA] was added. After stirring, the luciferase activity was determined using 1420 ARVO Multilabel Counter [manufactured by PerkinElmer, USA].
The percent (%) was calculated from the luciferase activity of each test compound when the luciferase activity of the control compound (compound X: 5-[3-(4-{[2-(2-furyl)-5-methyl-1,3-oxazol-4-yl]methoxy}-3-methoxyphenyl)propyl]-1,3-oxazolidine-2,4-dione) (1 μM) was 100% and that of the test compound non-administration group was 0%.
A CHO-K1 cell cultured in a 150 cm^2 cell culture flask [manufactured by Corning Costar Corporation, USA] containing Ham's F12 medium [manufactured by INVITROGEN, USA] supplemented with 10% fetal bovine serum [manufactured by INVITROGEN, USA] was scraped by treating with 0.5 g/L trypsin-0.2 g/L EDTA (ethylenediaminetetraacetic acid) [manufactured by Life Technologies, Inc., USA], and then the cell was washed with PBS (Phosphate-buffered saline) [manufactured by INVITROGEN, USA], centrifuged (1000 rpm, 5 minutes) and suspended in PBS. Subsequently, DNA was introduced into the cell under the conditions shown below using GENE PULSER [manufactured by Bio-Rad Laboratories, USA].
Namely, to a cuvette having a 0.4 cm gap were added 8×10^6 cells and 10 μg of plasmid pVgRXR2-hPPARγ obtained in Reference Example 4 and 10 μg of reporter plasmid pGL3-4ERPP-TK neo obtained in Reference Example 3, which was subjected to electroporation at the voltage of 0.25 kV under the capacitance of 960 μF. Subsequently, the cell was transferred into a F12 medium containing 10% fetal bovine serum and cultured for 24 hours, and then the cell was scraped again and centrifuged, and then suspended in Ham's F12 medium containing 10% fetal bovine serum supplemented with 500 μg/ml of Geneticin [manufactured by INVITROGEN, USA] and 250 μg/ml of Zeocin [manufactured by INVITROGEN, USA]. The obtained suspension was diluted to the density of 1 cells/ml and inoculated in a 96-well plate [manufactured by Corning Costar Corporation, USA], which was cultured in a CO2 gas incubator at 37° C., whereby obtaining a Geneticin- and Zeocin-resistant transformant.
Subsequently, after the transformant cell line thus obtained was cultured in a 24-well plate [manufactured by Corning Costar Corporation, USA], a cell line in which the luciferase was expressed and induced, i.e., PPARγ:RXRα:4ERPP/CHO-K1 cell was selected by the addition of 10 μM pioglitazone hydrochloride.
For orientation: In a reporter assay the amount or activity of a reporter protein is the signal.

A further assay deals with T2, human AT1 receptor (Homo sapiens, UniProt P30556).
T2 construct: expressed in transfected cells; host or cells: CHO-K1
T2 sequence (P30556 1-359): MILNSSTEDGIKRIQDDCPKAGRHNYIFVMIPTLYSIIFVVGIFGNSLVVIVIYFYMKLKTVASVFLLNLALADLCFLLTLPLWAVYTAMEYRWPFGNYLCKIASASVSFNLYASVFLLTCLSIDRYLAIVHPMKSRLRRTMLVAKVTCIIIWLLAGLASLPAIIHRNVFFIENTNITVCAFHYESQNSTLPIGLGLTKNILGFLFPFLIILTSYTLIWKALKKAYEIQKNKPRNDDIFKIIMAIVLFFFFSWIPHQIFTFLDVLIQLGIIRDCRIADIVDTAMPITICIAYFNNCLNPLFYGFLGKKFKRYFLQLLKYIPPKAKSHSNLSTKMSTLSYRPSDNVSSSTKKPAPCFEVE
Put plainly: Binding assay using human AT1 receptor-expressing CHO-K1 cell membrane fraction ([125I]-angiotensin II). Particulars: 22.5 pM [125I]-angiotensin II, 9 μg AT1 membrane, 1 hr room temperature; read-out: AT1 receptor binding inhibitory action (IC50 (nM)). As to the method:
The membrane fraction for human AT1 receptor binding assay was prepared as follows. CHO-K1 cell capable of stable expression of human AT1 receptor was cultured, recovered, suspended in homogenize buffer (10 mM NaHCO3 (pH 7.4), 5 mM EDTA, 1×Complete EDTA free) [manufactured by Roche, Switzerland], and homogenized. The homogenate was centrifuged at low-speed (900×g, 10 min, 4° C.), and the supernatant was recovered and ultracentrifuged (90,000×g, 1 hr, 4° C.). The supernatant was discarded, and the pellets were resuspended in resuspension buffer (50 mM Tris (pH 7.4), 1 mM EDTA, 1×Complete EDTA free).
The binding assay was performed in the presence of 22.5 pM [^125I]-angiotensin II [manufactured by PerkinElmer, USA], 9 μg of AT1 membrane and test compound in 100 μL (total reaction volume) of reaction buffer (50 mM Tris (pH 7.4), 10 mM MgCl2 supplemented or not supplemented with 0.3 mg/mL fatty acid-free bovine serum albumin [manufactured by Wako Pure Chemical Industries, Ltd., Japan]). […] The filter was air-dried, and [^125I]-angiotensin II binding radioactivity was assayed with Top Count scintillation counter. Total binding was measured in the presence of 1% DMSO and nonspecific binding was measured in the presence of 1 μM CV-11974. […]

Where [1] appears, read: test compound 10^−6 M, luciferase activity of control compound X (1 μM) = 100%, non-administration group = 0%.

`CCCc1nc(CC)n(-c2ccc3c(c2)CC(C)O3)c(=O)c1Cc1ccc(-c2ccccc2-c2noc([O-])n2)cc1.[K+]` (centres unmarked) [Example 312, 2-ethyl-3-(2-methyl-2,3-dihydro-1-benzofuran-5-yl)-5-{[2′-(5-oxo-4,5-dihydro-1,2,4-oxadiazol-3-yl)biphenyl-4-yl]methyl}-6-propylpyrimidin-4(3H)-one potassium salt]: at PPARγ (setting [1]), the “PPARγ activating action (activation % (10^−6 M))” value is recorded as 50.3%.

On to `CCCc1nc(CC)c(Oc2cccc(OC)c2)c(=O)n1Cc1ccc(-c2ccccc2-c2noc(O)n2)cc1` [Example 488, 6-ethyl-5-(3-methoxyphenoxy)-3-{[2′-(5-oxo-4,5-dihydro-1,2,4-oxadiazol-3-yl)biphenyl-4-yl]methyl}-2-propylpyrimidin-4(3H)-one potassium salt], for which, on PPARγ (setting [1]), the “PPARγ activating action (activation % (10^−6 M))” value worked out at 16.7%. On the same count and under the same terms, the same measure for `CCCc1nc(CC)n(-c2ccc3c(c2)CCO3)c(=O)c1Cc1ccc(-c2ccccc2-c2noc([O-])n2)cc1.[K+]` [Example 311, 3-(2,3-dihydro-1-benzofuran-5-yl)-2-ethyl-5-{[2′-(5-oxo-4,5-dihydro-1,2,4-oxadiazol-3-yl)biphenyl-4-yl]methyl}-6-propylpyrimidin-4(3H)-one potassium salt]: 38.1%; for `CCCc1nc(C)c(Oc2ccc(OC)cc2)c(=O)n1Cc1ccc(-c2ccccc2-c2noc(O)n2)cc1` [Example 476, 5-(4-methoxyphenoxy)-6-methyl-3-{[2′-(5-oxo-4,5-dihydro-1,2,4-oxadiazol-3-yl)biphenyl-4-yl]methyl}-2-propylpyrimidin-4(3H)-one potassium salt]: 18.5%; for `CCCCc1nc(CC)n(Cc2ccccc2)c(=O)c1Cc1ccc(-c2ccccc2-c2noc(=O)[nH]2)cc1` [Example 105, 3-benzyl-6-butyl-2-ethyl-5-{[2′-(5-oxo-4,5-dihydro-1,2,4-oxadiazol-3-yl)biphenyl-4-yl]methyl}pyrimidin-4(3H)-one]: 64.1%.

`CCCc1nc(CC)n(-c2ccc(OC)cc2)c(=O)c1Cc1ccc(-c2ccccc2-c2noc([O-])n2)cc1.[K+]` [Example 313, 2-ethyl-3-(4-methoxyphenyl)-5-{[2′-(5-oxo-4,5-dihydro-1,2,4-oxadiazol-3-yl)biphenyl-4-yl]methyl}-6-propylpyrimidin-4(3H)-one potassium salt]: the “PPARγ activating action (activation % (10^−6 M))” value on PPARγ (setting [1]) is reported as 31.0%.

For `CCCc1nc(CC)c(C(O)C(C)C)c(=O)n1Cc1ccc(-c2ccccc2-c2noc(O)n2)cc1` (centres unmarked) [Example 473, 6-ethyl-5-(1-hydroxy-2-methylpropyl)-3-{[2′-(5-oxo-4,5-dihydro-1,2,4-oxadiazol-3-yl)biphenyl-4-yl]methyl}-2-propylpyrimidin-4(3H)-one potassium salt], on PPARγ (setting [1]), the “PPARγ activating action (activation % (10^−6 M))” value stood at 15.7%.

`CCCCc1nc(CC)n(CC(=O)C(C)(C)C)c(=O)c1Cc1ccc(-c2ccccc2-c2noc(O)n2)cc1` [Example 309, 6-butyl-3-(3,3-dimethyl-2-oxobutyl)-2-ethyl-5-{[2′-(5-oxo-4,5-dihydro-1,2,4-oxadiazol-3-yl)biphenyl-4-yl]methyl}pyrimidin-4(3H)-one potassium salt]: the activation at 1 µM at PPARγ came out at 31.5%. For the same molecule, the IC50 on human AT1 receptor was found to be 1.6 nM. In the case of `CCCc1nc(C(F)F)n(-c2ccc(OC)cc2)c(=O)c1Cc1ccc(-c2ccccc2-c2noc(=O)[nH]2)cc1` [Example 410, 2-(difluoromethyl)-3-(4-methoxyphenyl)-5-{[2′-(5-oxo-4,5-dihydro-1,2,4-oxadiazol-3-yl)biphenyl-4-yl]methyl}-6-propylpyrimidin-4(3H)-one], the activation at 1 µM at PPARγ (setting [1]) worked out at 19.5%. On to `CCCCc1nc(C2CC2)n(-c2ccccc2)c(=O)c1Cc1ccc(-c2ccccc2-c2noc([O-])n2)cc1.[K+]` [Example 310, 6-butyl-2-cyclopropyl-5-{[2′-(5-oxo-4,5-dihydro-1,2,4-oxadiazol-3-yl)biphenyl-4-yl]methyl}-3-phenylpyrimidin-4(3H)-one potassium salt], for which the “PPARγ activating action (activation % (10^−6 M))” value on PPARγ (setting [1]) turned out to be 27.1%.
